Experimental findings from patent publication EP2332528A1, “Substituted aromatic dicarbonic acid amides as medicaments” (Grünenthal GmbH, priority 2009, dated 2011) are described below.

In this experiment the test system is vGLUT1- bzw. vGLUT2-Transporter. Kind of experiment: Glutamate uptake in rat crude synaptic vesicles ([3H]-glutamate uptake). The settings on record: for IC50: read-out: VGLUT (Ratte), IC50; for VGLUT (Ratte), Hemmung [%]: test concentration not given. The format is biochemical, Ratte. The text has this:
I. Funktionelle Untersuchung an den vGLUT1- bzw. vGLUT2-Transportern
Die agonistische bzw. antagonistische Wirkung der zu untersuchenden Verbindungen am vGLUT1- bzw. vGLUT2-Transporter der Spezies Ratte kann mit folgendem Assay bestimmt werden.
Glutamat-Uptake in Rattenvesikel ('rat crude synaptic vesicles')
Die Präparation von Vesikeln wurde aus Rattengehirn-Homogenaten (männlichen Ratten, Stamm Wistar SPF, 150-250 g Gewicht) durchgeführt gemäß Roseth et al. (1995) J. Neurochem. 65: 96-103, der sich auf Whittaker et al. (1964) Biochem J. 90, 293-303 und Fykse und Fonnum (1988) J. Neurochem. 50: 1237-1242 bezieht.
Hierzu wurden frisch entnommene Rattengehirne in 0,32 M Saccharose, 10 mM TRIS-maleat, 1 mM EGTA, pH 7,4 (10 ml/g Frischgewicht) mit einem Potter-Homogenisator (Fa. Braun/Melsungen; 5 Kolbenhübe bei 800 Upm) unter Eiskühlung homogenisiert und anschließend für 10 Minuten bei 3.000 g und 4°C zentrifugiert. Der resultierende Überstand wurde bei 20.000 g für 30 Minuten bei 4°C zentrifugiert. Das entstandene Pellet wurde dann im Verhältnis 1:3 mit 10 mM TRIS-maleate, 0,1 mM EGTA, pH 7,4 osmotisch geschockt und die Suspension bei 17000g für 30 min (4°C) zentrifugiert. Die im Überstand verbliebenen Vesikel wurden nun auf einen Dichtegradienten aus 0,6 M Saccharose in 10 mM TRIS-maleat, 1 mM EGTA, pH 7.4 und 0.4 M Saccharose in 10 mM TRIS-maleat, 1 mM EGTA, pH 7.4 geschichtet. Eine Ultrazentrifugation der Gradienten im Ausschwingrotor bei 65000g für 2h (4°C) schloss sich an. Die Vesikel-Fraktion wurde von der 0.4 M Saccharose-Bande isoliert und im Uptake-Versuch eingesetzt.
Die Substratlösung für den Uptake von [^3H]-Glutamat bestand aus ATP (neutralisiert mit Trisma base; 2 mM im Endansatz), Glutamat (0.5 mM im Endansatz) und ^3H-Glutamat (0.5 µCi im Endansatz). In 14 ml-Reagiergefäßen (Sarstedt, Artikel-Nr.: 798438) wurden jeweils 0,3 ml Gesamtvolumina (n=2/Probe) pipettiert in der folgenden Reihenfolge: 1.) 165 µl Inkubationspuffer (110 mM Kaliumtartrat, 10 mM TRIS-maleat, pH 7,4, 4 mM MgCl2), 2.) 10 µl Testsubstanz oder Vehikelkontrolle oder blank, 3.) 100 µl synaptische Vesikel. Es schloss sich eine Vorinkubation von 15 min bei 30°C an (nur blank-Ansätze befanden sich hierbei auf Eis). Danach wurde der Uptake durch Zugabe von 25 µl der oben beschriebenen Substratlösung gestartet. Die Reaktion wurde nach 5 min durch Zugabe von 7,0 ml eiskalter 150 mM KCI gestoppt. Anschließend wurden die Proben mit Hilfe des Brandel Cell Harvesters Typ M-24R über einen Membranfilter der Porengröße 0,8 µm abgesaugt und zweimal mit eiskalter 150 mM KCI nachgewaschen. Die Messung erfolgte am beta-Counter nach 15 h in 10 ml Szintillatorflüssigkeit (Filter Count).
Die Affinität der Verbindungen der allgemeinen Formel (I) für den vGLUT1- bzw. vGLUT2-Transporter wurde wie vorstehend beschrieben bestimmt (Pharmakologische Methoden).

A word on the IC50: it is the point on the concentration scale where inhibition reaches its midpoint.

Turning to `O=C(Nc1ccccc1C(=O)O)c1ccc(C(=O)Nc2ccccc2C(=O)O)cc1` [Beispiel 1, 2-(4-(2-Carboxyphenylcarbamoyl)benzamido)benzoesäure], the IC50 turned out to be 1290 nM and the “VGLUT (Ratte), Hemmung [%]” value is on record as 91%.
Taken in the same sequence, the figures for `O=C(Nc1ccccc1C(=O)O)c1cccc(C(=O)Nc2ccccc2C(=O)O)c1` [Beispiel 2, 2-(3-(2-Carboxyphenylcarbamoyl)benzamido)benzoesäure] were 3350 nM and 78%.
Taken in the same sequence, the figures for `O=C(Nc1ccccc1C(=O)O)c1ccc(Oc2ccc(C(=O)Nc3ccccc3C(=O)O)cc2)cc1` [Beispiel 3, 2-(4-(4-(2-Carboxyphenylcarbamoyl)phenoxy)benzamido)-benzoesäure] were 2260 nM and 88%.
Consider `O=C(Nc1cc([N+](=O)[O-])ccc1C(=O)O)c1cccc(C(=O)Nc2cc([N+](=O)[O-])ccc2C(=O)O)c1` [Beispiel 4, 2-(3-(2-Carboxy-5-nitrophenylcarbamoyl)benzamido)-4-nitrobenzoesäure], for which the IC50 is 320 nM and the “VGLUT (Ratte), Hemmung [%]” value was 92%.
The matching figures for `O=C(Nc1cc([N+](=O)[O-])ccc1C(=O)O)c1ccc(C(=O)Nc2cc([N+](=O)[O-])ccc2C(=O)O)cc1` [Beispiel 5, 2-(4-(2-Carboxy-5-nitrophenylcarbamoyl)benzamido)-4-nitrobenzoesäure]: 860 nM and 88%.
